Measured values reported in patent publication US9353082B2, “Pharmaceutical compounds” (BIAL—PORTELA & CA, S.A., priority 2008, dated 2016).

Tests used:
[1] = target: T1, FAAH (Rattus norvegicus, UniProt P97612); assay: In vitro FAAH activity in rat brain membranes, 3H-AEA substrate, % of control; format: biochemical, Wistar rats; details: low value = strong inhibitor; for In Vitro FAAH activity, 100 nM: 100 nM test compound; for In Vitro 100 nM (FAAH activity, % of control): rat brain membranes, compound at 100 nM
T1 construct: Frozen brains (without cerebellum) from Wistar rats were used; from tissue; host or cells: Wistar rat brain (without cerebellum), washed membrane pellets
T1 sequence (P97612 1-579): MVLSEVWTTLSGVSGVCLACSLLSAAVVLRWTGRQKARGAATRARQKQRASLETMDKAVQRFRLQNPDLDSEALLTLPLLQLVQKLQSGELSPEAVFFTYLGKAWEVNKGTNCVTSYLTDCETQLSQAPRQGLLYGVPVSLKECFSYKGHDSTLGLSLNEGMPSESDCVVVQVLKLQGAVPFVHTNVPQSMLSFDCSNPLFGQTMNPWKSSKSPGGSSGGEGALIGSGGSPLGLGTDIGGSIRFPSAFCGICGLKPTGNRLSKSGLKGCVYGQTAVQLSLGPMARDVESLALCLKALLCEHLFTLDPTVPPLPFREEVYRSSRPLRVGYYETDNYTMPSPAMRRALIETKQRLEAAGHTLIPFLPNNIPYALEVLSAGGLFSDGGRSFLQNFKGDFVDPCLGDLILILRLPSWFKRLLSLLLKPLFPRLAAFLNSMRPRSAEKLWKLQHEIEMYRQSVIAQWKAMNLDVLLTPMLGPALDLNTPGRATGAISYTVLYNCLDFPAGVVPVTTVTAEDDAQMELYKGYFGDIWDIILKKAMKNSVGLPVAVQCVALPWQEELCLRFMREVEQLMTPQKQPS
Method in brief: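 FAAH activity measured as 3H-ethanolamine released from 2 μM [3H]AEA over 10 min by rat brain membrane preparation, after 15 min 37 °C preincubation with test compound at 10 or 0.1 μM. Charcoal-separated supernatant scintillation-counted; values expressed as % of control minus no-protein blank.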

[2] = target: T2, FAAH (Mus musculus, UniProt O08914); assay: In vivo FAAH inhibition after oral dosing, remaining activity in brain homogenate (BRh, central nervous tissue); design: species or system NMRI mice; details: brain homogenate; for In Vivo BRh 3 mg·kg 8 h (remaining FAAH activity, % of control): 8 h after dosing, low value = strong inhibitor
T2 construct: A fragment of liver, left lung lobe and brain without cerebellum were removed; from tissue; host or cells: male NMRI mice; brain (without cerebellum) and liver homogenates
T2 sequence (O08914 1-579): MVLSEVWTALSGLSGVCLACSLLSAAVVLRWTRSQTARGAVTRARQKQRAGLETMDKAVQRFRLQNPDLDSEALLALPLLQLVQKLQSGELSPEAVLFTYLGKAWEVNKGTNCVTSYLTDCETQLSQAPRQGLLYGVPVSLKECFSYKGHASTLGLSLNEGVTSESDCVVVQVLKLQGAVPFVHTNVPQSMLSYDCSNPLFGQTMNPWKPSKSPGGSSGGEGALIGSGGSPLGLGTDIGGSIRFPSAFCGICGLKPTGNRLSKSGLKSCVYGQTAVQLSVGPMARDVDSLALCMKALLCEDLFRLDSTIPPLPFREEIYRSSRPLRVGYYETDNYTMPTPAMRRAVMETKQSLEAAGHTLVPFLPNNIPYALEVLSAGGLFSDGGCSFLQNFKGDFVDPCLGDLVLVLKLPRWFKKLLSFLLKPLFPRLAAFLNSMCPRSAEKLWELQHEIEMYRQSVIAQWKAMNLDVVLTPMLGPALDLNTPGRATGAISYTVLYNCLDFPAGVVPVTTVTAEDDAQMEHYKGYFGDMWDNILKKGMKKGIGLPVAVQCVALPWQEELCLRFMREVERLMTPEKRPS
Method in brief: (§1)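 Remaining FAAH activity is given as % of vehicle-treated controls after blank subtraction, measured by radiolabelled AEA hydrolysis (2 μM AEA, 5 nM 3H-AEA, 37 °C) in brain (10 min) or liver (7 min) homogenates. These came from fasted male NMRI mice dosed orally at 30 or 3 mg/kg.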

[3] = target: T2, FAAH; assay: In vivo FAAH inhibition after oral dosing, remaining activity in liver homogenate (LVh, peripheral tissue); design: species or system NMRI mice; details: liver homogenate; for In Vivo LVh 3 mg·kg 8 h (remaining FAAH activity, % of control): 8 h after dosing, low value = strong inhibitor
Method in brief: as §1

Row | SMILES | In Vitro FAAH activity, 100 nM [1] | In Vivo BRh 3 mg/kg 8 h, remaining FAAH activity [2] | In Vivo LVh 3 mg/kg 8 h, remaining FAAH activity [3] | In Vitro 100 nM (FAAH activity, % of control) [1] | In Vivo BRh 3 mg·kg 8 h (remaining FAAH activity, % of control) [2] | In Vivo LVh 3 mg·kg 8 h (remaining FAAH activity, % of control) [3] | In Vivo BRh 30 mg/kg 1 h, remaining FAAH activity [2] | In Vivo LVh 30 mg/kg 1 h, remaining FAAH activity [3] | In Vitro FAAH activity, 10 uM ([1]; 10 uM test compound)
1 | O=C(NC1CCCCC1)n1nnc2ccccc21 [Compound 87, N-cyclohexyl-1H-benzo[d][1,2,3]triazole-1-carboxamide] | 0 % of control | 3.4 % of control | 4 % of control |  |  |  |  |  | 
2 | CN(C(=O)n1cnc(-c2ccc(O)c(F)c2)c1)C1CCCCC1 [Compound 330, N-cyclohexyl-4-(3-fluoro-4-hydroxyphenyl)-N-methyl-1H-imidazole-1-carboxamide] |  |  |  | 29.7 % of control | 22.8 % of control | 11.1 % of control |  |  | 
3 | CN(C(=O)n1nnc2ccccc21)C1CCCCC1 [Compound 58, N-cyclohexyl-N-methyl-1H-benzo[d][1,2,3]triazole-1-carboxamide] | 1 % of control | 0.5 % of control | 0.3 % of control |  |  |  | 0.3 % of control | 0.9 % of control | 
4 | CN(C(=O)n1cnc(-c2cc3ccccc3o2)c1)C1CCCCC1 [Compound 334, 4-(benzofuran-2-yl)-N-cyclohexyl-N-methyl-1H-imidazole-1-carboxamide] |  |  |  | 58.2 % of control | 9.9 % of control | 5.1 % of control |  |  | 
5 | COc1ccc(OCCN(C)C(=O)n2nnc3ccccc32)cc1 [Compound 157, N-(2-(4-methoxyphenoxy)ethyl)-N-methyl-1H-benzo[d][1,2,3]triazole-1-carboxamide] | 0 % of control | 5.2 % of control | 3.5 % of control |  |  |  |  |  | 
6 | CC1(C)COCN1C(=O)n1cnc(-c2ccc(O)c(F)c2)c1 [Compound 332, (4,4-dimethyloxazolidin-3-yl)(4-(3-fluoro-4-hydroxyphenyl)-1H-imidazol-1-yl)methanone] |  |  |  | 88.5 % of control | 60 % of control | 19.5 % of control |  |  | 
7 | Cc1c(-c2ccccc2)ncn1C(=O)N1COCC1(C)C [Compound 263, (4,4-dimethyloxazolidin-3-yl)(5-methyl-4-phenyl-1H-imidazol-1-yl)methanone] | 92.1 % of control | 98.1 % of control | 98.8 % of control |  |  |  |  |  | 
8 | CC1(C)OCCN1C(=O)n1cnc(-c2ccccc2)c1 [Compound 220, (2,2-dimethyloxazolidin-3-yl)(4-phenyl-1H-imidazol-1-yl)methanone] | 103.7 % of control | 31.5 % of control | 20 % of control |  |  |  |  |  | 
9 | CC1(C)COCN1C(=O)n1cnc(-c2ccc(F)c(O)c2)c1 [Compound 333, (4,4-dimethyloxazolidin-3-yl)(4-(4-fluoro-3-hydroxyphenyl)-1H-imidazol-1-yl)methanone] |  |  |  | 81.9 % of control | 119 % of control | 81.5 % of control |  |  | 
10 | CN(Cc1ccccc1)C(=O)n1cnc(-c2cccc3ccccc23)n1 [Compound 191, N-benzyl-N-methyl-3-(naphthalen-1-yl)-1H-1,2,4-triazole-1-carboxamide] | 21 % of control | 60 % of control | 20.8 % of control |  |  |  |  |  | 
11 | CN(C(=O)n1cnc(-c2ccc(F)cc2)c1)C1CCCCC1 [Compound 273, N-cyclohexyl-4-(4-fluorophenyl)-N-methyl-1H-imidazole-1-carboxamide] |  |  |  | 65.1 % of control | 3.4 % of control | 2.6 % of control |  |  | 
12 | CCC1(C)OCCN1C(=O)n1cnc(-c2ccc(Cl)cc2)c1 (stereo not drawn) [Compound 233, (4-(4-chlorophenyl)-1H-imidazol-1-yl)(2-ethyl-2-methyloxazolidin-3-yl)methanone] | 74.1 % of control | 33.5 % of control | 21.1 % of control |  |  |  |  |  | 
13 | CCC1CN(C(=O)n2cnc(-c3ccc(Cl)cc3)c2)C(C)(C)O1 (stereo not drawn) [Compound 267, (4-(4-chlorophenyl)-1H-imidazol-1-yl)(5-ethyl-2,2-dimethyloxazolidin-3-yl)methanone] | 84.1 % of control | 79.4 % of control | 83.7 % of control |  |  |  |  |  | 
14 | CN(C(=O)n1cnc(-c2cccnc2)c1)C12CC3CC(CC(C3)C1)C2 [Compound 289, N-methyl-4-pyridin-3-yl-N-tricyclo[3.3.1.13,7]dec-1-yl-1H-imidazole-1-carboxamide] |  |  |  | 109.8 % of control | 113.2 % of control | 96.1 % of control |  |  | 
15 | CN1CCN(c2ccc(-c3ncn(C(=O)N4CCOCC4)n3)cc2)CC1 [Compound 139, (3-(4-(4-methylpiperazin-1-yl)phenyl)-1H-1,2,4-triazol-1-yl)(morpholino)methanone] | 80.2 % of control | 97.1 % of control | 105.7 % of control |  |  |  |  |  | 
16 | O=C(N1CCN(c2ccccc2)CC1)n1nnc2ccccc21 [Compound 41, (1H-benzo[d][1,2,3]triazol-1-yl)(4-phenylpiperazin-1-yl)methanone] | 0 % of control |  |  |  |  |  | 87.6 % of control | 30 % of control | 0 % of control
17 | C[C@@H]1CCC[C@H](C)N1C(=O)n1cnc(-c2ccccc2)c1 [Compound 221, ((2R,6S)-2,6-dimethylpiperidin-1-yl)(4-phenyl-1H-imidazol-1-yl)methanone] | 105.8 % of control | 104.5 % of control | 44.9 % of control |  |  |  |  |  | 
